PMC9519446, “Discovery of an Orally Active Benzoxaborole Prodrug Effective in the Treatment of Chagas Disease in Non-human Primates” (Nature microbiology, 2022)
“And” between values parts separate entries of the source, which are not always exact repeats. Equal values may be shown once.

Columns and labels:
[1] = tested on: T. cruzi (naturally acquired infection); test: NHP treatment study: hemoculture; type: in vivo, rhesus macaques (Macaca mulatta); conditions: 30 mg/kg/day oral 60 days; all time points after end of treatment
Experimental: A total of 22 rhesus macaques that had been confirmed to be serologically- and PCR-positive for T. cruzi were utilized in these studies. Using 19 animals in the treatment group provided 85% power of detecting 100% efficacy. […] The remaining three animals on the study were maintained as untreated control animals and received food treats but were not dosed with AN15368.
For hemoculture determinations, peripheral blood from macaques was collected and cultured at 26°C in supplemented liver digest neutralized tryptose medium as described previously. The presence of T. cruzi parasites was assessed every week for 3 months under an inverted microscope. T. cruzi DTU of the macaque isolates was determined as previously described.

[2] = NHP health screening: hematology (CBC); type: in vivo, rhesus macaques (Macaca mulatta)
Experimental: Under light-anesthesia/sedation, peripheral blood samples were collected from each animal prior to treatment and at 7 time points following. Blood analysis (CBC and serum chemistry assays) and physical exams to evaluate the health of the study animals were performed on each animal prior to the beginning of the study and also at three time points during the treatment protocol (see Supplementary data).

[3] = Mean of treated female rhesus macaques, blood sample of 2018-03-26/27
[4] = Treated rhesus macaques, individual animal, blood sample of 2018-03-26/27
[5] = drug-treatment phase, returned to pre-study values by the final blood draw
[6] = treated female macaques, mid-dosing bleed, Mean
[7] = treated female macaques, post-dosing bleed, Mean

Cc1c(C(=O)N[C@H](C(=O)OCC2CCOCC2)C(C)C)ccc2c1B(O)OC2 [AN15368]
culture of parasites from blood (in words) [1]: negative
Baso, Mean [2, 3]: 0.01 10^3/µL
Eos, Mean [2, 3]: 0.09056 10^3/µL
Hct, Mean [2, 3]: 42.7278%
Hgb, Mean [2, 3]: 13.2278 G/Dl
Lymp, Mean [2, 3]: 2.112 10^3/µL
Mch, Mean [2, 3]: 22.4444 Pgs
Mchc, Mean [2, 3]: 30.9611 G/Dl
Mcv, Mean [2, 3]: 72.4667 fL
Mono, Mean [2, 3]: 0.2806 10^3/µL
Mpv, Mean [2, 3]: 7.333 fL
Neut, Mean [2, 3]: 3.369 10^3/µL
Plt, Mean [2, 3]: 334.722 10^3/µL
Rbc, Mean [2, 3]: 5.902 10^6/µL
Rdw, Mean [2, 3]: 12.2111%
Wbc, Mean [2, 3]: 5.862 10^3/µL
Baso [2, 4]: 0.01 10^3/µL and 0 10^3/µL
Eos [2, 4]: 0.24 10^3/µL and 0.09 10^3/µL and 0.02 10^3/µL and 0.17 10^3/µL and 0.16 10^3/µL
Hct [2, 4]: 46.5% and 43.6% and 38.8% and 40.8% and 41.6%
Hgb [2, 4]: 14.6 G/Dl and 13 G/Dl and 11.7 G/Dl and 13.1 G/Dl
Lymp [2, 4]: 2.42 10^3/µL and 2.63 10^3/µL and 1.31 10^3/µL and 3.46 10^3/µL and 2.68 10^3/µL
Mch [2, 4]: 21.8 Pgs and 21.4 Pgs and 21.5 Pgs and 22.2 Pgs and 22.8 Pgs
Mchc [2, 4]: 31.4 G/Dl and 29.8 G/Dl and 30.2 G/Dl and 32.1 G/Dl and 31.5 G/Dl
Mcv [2, 4]: 69.6 fL and 71.6 fL and 71.5 fL and 69.4 fL and 72.5 fL
Mono [2, 4]: 0.38 10^3/µL and 0.28 10^3/µL and 0.1 10^3/µL and 0.31 10^3/µL
Mpv [2, 4]: 7.6 fL and 6.9 fL and 7.2 fL and 6.4 fL
Neut [2, 4]: 3.03 10^3/µL and 1.68 10^3/µL and 2.26 10^3/µL and 1.88 10^3/µL and 0.86 10^3/µL
Plt [2, 4]: 347 10^3/µL and 388 10^3/µL and 304 10^3/µL and 339 10^3/µL and 367 10^3/µL
Rbc [2, 4]: 6.68 10^6/µL and 6.09 10^6/µL and 5.43 10^6/µL and 5.88 10^6/µL and 5.74 10^6/µL
Rdw [2, 4]: 11.4% and 12.7% and 10.8% and 12.3% and 12.2%
Wbc [2, 4]: 6.07 10^3/µL and 4.69 10^3/µL and 3.69 10^3/µL and 5.83 10^3/µL and 3.99 10^3/µL
lymphocytes in the blood [2, 5]: mildly elevated
monocytes in the blood [2, 5]: mildly elevated
Baso [2, 6]: 0.01333 10^3/µL
Eos [2, 6]: 0.09889 10^3/µL
Hct [2, 6]: 41.4111%
Hgb [2, 6]: 13.2333 G/Dl
Lymp [2, 6]: 3.343 10^3/µL
Mch [2, 6]: 23.5333 Pgs
Mchc [2, 6]: 31.9611 G/Dl
Mcv [2, 6]: 73.75 fL
Mono [2, 6]: 0.2572 10^3/µL
Mpv [2, 6]: 7.506 fL
Neut [2, 6]: 2.007 10^3/µL
Plt [2, 6]: 319.5 10^3/µL
Rbc [2, 6]: 5.621 10^6/µL
Rdw [2, 6]: 12.4556%
Wbc [2, 6]: 5.718 10^3/µL
Baso [2, 7]: 0.01167 10^3/µL
Eos [2, 7]: 0.09 10^3/µL
Hct [2, 7]: 40.5389%
Hgb [2, 7]: 13.0722 G/Dl
Lymp [2, 7]: 2.497 10^3/µL
Mch [2, 7]: 23.6944 Pgs
